The NIST ThermoML archive (doi:10.1016/j.jct.2006.01.008)

Experiment: mn = molality of the nth substance listed, in mol/kg
Details: Liquid

O=[N+]([O-])[O-].[Li+] [lithium nitrate] + CO
Details | mass density [kg/m3]
348.25 K, 312 kPa, m1 = 3.614 | 887.13
348.25 K, 318 kPa, m1 = 1.803 | 819.91
348.25 K, 325 kPa, m1 = 0.5393 | 764.85
348.25 K, 4991 kPa, m1 = 0.5393 | 770.52
348.25 K, 5006 kPa, m1 = 3.614 | 891.37
348.25 K, 5009 kPa, m1 = 1.803 | 824.85
348.25 K, 9982 kPa, m1 = 3.614 | 895.64
348.25 K, 10005 kPa, m1 = 1.803 | 829.8
348.25 K, 10014 kPa, m1 = 0.5393 | 776.21
348.25 K, 14983 kPa, m1 = 1.803 | 834.47
348.25 K, 14987 kPa, m1 = 0.5393 | 781.48
348.25 K, 15007 kPa, m1 = 3.614 | 899.77
348.25 K, 19991 kPa, m1 = 1.803 | 838.93
348.25 K, 19995 kPa, m1 = 3.614 | 903.68
348.25 K, 20004 kPa, m1 = 0.5393 | 786.51
348.25 K, 24984 kPa, m1 = 1.803 | 843.17
348.25 K, 24990 kPa, m1 = 3.614 | 907.45
348.25 K, 25002 kPa, m1 = 0.5393 | 791.23
348.25 K, 29989 kPa, m1 = 0.5393 | 795.72
348.25 K, 29996 kPa, m1 = 3.614 | 911.08
348.25 K, 30007 kPa, m1 = 1.803 | 847.26
348.25 K, 34987 kPa, m1 = 0.5393 | 800.01
348.25 K, 34994 kPa, m1 = 3.614 | 914.59
348.25 K, 34996 kPa, m1 = 1.803 | 851.13
348.25 K, 39988 kPa, m1 = 0.5393 | 804.12
348.25 K, 39995 kPa, m1 = 1.803 | 854.88
348.25 K, 40008 kPa, m1 = 3.614 | 917.97
373.15 K, 572 kPa, m1 = 0.1551 | 719.83
373.15 K, 578 kPa, m1 = 0.8904 | 757.09
373.15 K, 627 kPa, m1 = 0.2943 | 727.47
373.15 K, 4896 kPa, m1 = 0.1551 | 726.23
373.15 K, 4896 kPa, m1 = 0.8904 | 762.68
373.15 K, 5038 kPa, m1 = 0.2943 | 733.83
373.15 K, 10365 kPa, m1 = 0.2943 | 741.1
373.15 K, 10738 kPa, m1 = 0.1551 | 734.38
373.15 K, 10738 kPa, m1 = 0.8904 | 769.86
373.15 K, 15238 kPa, m1 = 0.1551 | 740.28
373.15 K, 15238 kPa, m1 = 0.8904 | 775.11
373.15 K, 15875 kPa, m1 = 0.2943 | 748.15
373.15 K, 20369 kPa, m1 = 0.2943 | 753.53
373.15 K, 21035 kPa, m1 = 0.1551 | 747.38
373.15 K, 21035 kPa, m1 = 0.8904 | 781.49
373.15 K, 25124 kPa, m1 = 0.1551 | 752.05
373.15 K, 25124 kPa, m1 = 0.8904 | 785.73
373.15 K, 25852 kPa, m1 = 0.2943 | 759.66
373.15 K, 30147 kPa, m1 = 0.2943 | 764.13
373.15 K, 30418 kPa, m1 = 0.1551 | 757.68
373.15 K, 30418 kPa, m1 = 0.8904 | 790.91
373.15 K, 35753 kPa, m1 = 0.2943 | 769.52
373.15 K, 35984 kPa, m1 = 0.1551 | 763.11
373.15 K, 35984 kPa, m1 = 0.8904 | 795.98
373.15 K, 39901 kPa, m1 = 0.1551 | 766.61
373.15 K, 39901 kPa, m1 = 0.8904 | 799.31
373.15 K, 39951 kPa, m1 = 0.2943 | 773.22
373.27 K, 528 kPa, m1 = 3.614 | 865.29
373.27 K, 532 kPa, m1 = 1.803 | 796.7
373.27 K, 4988 kPa, m1 = 1.803 | 802.12
373.27 K, 5015 kPa, m1 = 3.614 | 869.9
373.27 K, 9996 kPa, m1 = 1.803 | 807.82
373.27 K, 10010 kPa, m1 = 3.614 | 874.76
373.27 K, 14985 kPa, m1 = 1.803 | 813.14
373.27 K, 14994 kPa, m1 = 3.614 | 879.35
373.27 K, 19990 kPa, m1 = 1.803 | 818.17
373.27 K, 19991 kPa, m1 = 3.614 | 883.74
373.27 K, 24989 kPa, m1 = 1.803 | 822.92
373.27 K, 24995 kPa, m1 = 3.614 | 887.93
373.27 K, 29999 kPa, m1 = 3.614 | 891.95
373.27 K, 30013 kPa, m1 = 1.803 | 827.46
373.27 K, 34987 kPa, m1 = 3.614 | 895.79
373.27 K, 35004 kPa, m1 = 1.803 | 831.77
373.27 K, 39994 kPa, m1 = 3.614 | 899.5
373.27 K, 39997 kPa, m1 = 1.803 | 835.89
373.28 K, 542 kPa, m1 = 0.5393 | 739.72
373.28 K, 4986 kPa, m1 = 0.5393 | 746.09
373.28 K, 9996 kPa, m1 = 0.5393 | 752.7
373.28 K, 14984 kPa, m1 = 0.5393 | 758.8
373.28 K, 20003 kPa, m1 = 0.5393 | 764.52
373.28 K, 24985 kPa, m1 = 0.5393 | 769.85
373.28 K, 29993 kPa, m1 = 0.5393 | 774.9
373.28 K, 35001 kPa, m1 = 0.5393 | 779.7
373.28 K, 39997 kPa, m1 = 0.5393 | 784.24
398.15 K, 1035 kPa, m1 = 0.2943 | 699.13
398.15 K, 1138 kPa, m1 = 0.8904 | 730.97
398.15 K, 1432 kPa, m1 = 0.1551 | 691.82
398.15 K, 5023 kPa, m1 = 0.8904 | 736.91
398.15 K, 5126 kPa, m1 = 0.1551 | 698.39
398.15 K, 5236 kPa, m1 = 0.2943 | 706.42
398.15 K, 10058 kPa, m1 = 0.8904 | 744.23
398.15 K, 10628 kPa, m1 = 0.1551 | 707.59
398.15 K, 10698 kPa, m1 = 0.2943 | 715.31
398.15 K, 15234 kPa, m1 = 0.1551 | 714.77
398.15 K, 15573 kPa, m1 = 0.8904 | 751.75
398.15 K, 15874 kPa, m1 = 0.2943 | 723.14
398.15 K, 20035 kPa, m1 = 0.8904 | 757.46
398.15 K, 20452 kPa, m1 = 0.2943 | 729.57
398.15 K, 21035 kPa, m1 = 0.1551 | 723.12
398.15 K, 25069 kPa, m1 = 0.8904 | 763.49
398.15 K, 25235 kPa, m1 = 0.2943 | 735.81
398.15 K, 26078 kPa, m1 = 0.1551 | 729.75
398.15 K, 30027 kPa, m1 = 0.1551 | 734.55
398.15 K, 30047 kPa, m1 = 0.8904 | 769.04
398.15 K, 30385 kPa, m1 = 0.2943 | 741.96
398.15 K, 35256 kPa, m1 = 0.2943 | 747.26
398.15 K, 35845 kPa, m1 = 0.8904 | 774.96
398.15 K, 35941 kPa, m1 = 0.1551 | 741.06
398.15 K, 39127 kPa, m1 = 0.2943 | 751.09
398.15 K, 39254 kPa, m1 = 0.8904 | 778.18
398.15 K, 39789 kPa, m1 = 0.1551 | 744.86
398.28 K, 900 kPa, m1 = 3.614 | 842.05
398.28 K, 4994 kPa, m1 = 3.614 | 846.92
398.28 K, 10001 kPa, m1 = 3.614 | 852.52
398.28 K, 14988 kPa, m1 = 3.614 | 857.76
398.28 K, 19997 kPa, m1 = 3.614 | 862.72
398.28 K, 24994 kPa, m1 = 3.614 | 867.42
398.28 K, 29993 kPa, m1 = 3.614 | 871.89
398.28 K, 34991 kPa, m1 = 3.614 | 876.17
398.28 K, 39987 kPa, m1 = 3.614 | 880.27
398.29 K, 904 kPa, m1 = 0.5393 | 712.1
398.29 K, 906 kPa, m1 = 1.803 | 771.63
398.29 K, 4994 kPa, m1 = 1.803 | 777.53
398.29 K, 4996 kPa, m1 = 0.5393 | 719.24
398.29 K, 9985 kPa, m1 = 0.5393 | 727.14
398.29 K, 9986 kPa, m1 = 1.803 | 784.19
398.29 K, 14989 kPa, m1 = 1.803 | 790.36
398.29 K, 15010 kPa, m1 = 0.5393 | 734.37
398.29 K, 19986 kPa, m1 = 1.803 | 796.11
398.29 K, 20018 kPa, m1 = 0.5393 | 740.98
398.29 K, 24995 kPa, m1 = 1.803 | 801.52
398.29 K, 25002 kPa, m1 = 0.5393 | 747.09
398.29 K, 29986 kPa, m1 = 1.803 | 806.59
398.29 K, 30001 kPa, m1 = 0.5393 | 752.82
398.29 K, 34984 kPa, m1 = 0.5393 | 758.22
398.29 K, 34988 kPa, m1 = 1.803 | 811.42
398.29 K, 39996 kPa, m1 = 0.5393 | 763.34
398.29 K, 40001 kPa, m1 = 1.803 | 816.03
